According to publication PMC13267291, “In vivo functional profiling and structural characterization of the human GLP1R A316T variant” (Science Advances, 2026):

Tested on: SNAP/FLAG-hGLP1R^A316T versus ^WT
Test: Insulin secretion in transduced primary human islets
Assay type: cell-based
Settings: 11 mM glucose + 100 nM; n = 4; Fig. 6G,H

With exendin-4 the “Agonist-induced potentiation of insulin secretion, A316T versus WT” value was “near-significant loss”.
